# Measurements taken from publication PMC3706088 (Journal of medicinal chemistry, 2013).
# “Also recorded” adds a separate entry of the source. Where two headings read alike, the source gives them in different places.
# Tests used:
# mCB2 = mCB2 (Mus musculus, UniProt P47936); assay: Radioligand competition binding with [3H]CP-55,940, mouse spleen membranes; conditions: from Ki values
# hCB2 = hCB2 (Homo sapiens, UniProt P34972); format: binding; conditions: from Ki values
# [1] = target: CB1-E cannabinoid receptors (Homo sapiens, UniProt P21554); assay: β-arrestin2 translocation assay, U2OS cells expressing CB1-E and β-arrestin2-GFP; conditions: for in vitro functional characterization, CB1 profile: conclusion of the in vitro functional assays; for β-arrestin2 translocation efficacy, 95% confidence interval: normalized to the response of WIN55212-2 set to 1, N = 3
# Sequence of CB1-E cannabinoid receptors (P21554 1-415): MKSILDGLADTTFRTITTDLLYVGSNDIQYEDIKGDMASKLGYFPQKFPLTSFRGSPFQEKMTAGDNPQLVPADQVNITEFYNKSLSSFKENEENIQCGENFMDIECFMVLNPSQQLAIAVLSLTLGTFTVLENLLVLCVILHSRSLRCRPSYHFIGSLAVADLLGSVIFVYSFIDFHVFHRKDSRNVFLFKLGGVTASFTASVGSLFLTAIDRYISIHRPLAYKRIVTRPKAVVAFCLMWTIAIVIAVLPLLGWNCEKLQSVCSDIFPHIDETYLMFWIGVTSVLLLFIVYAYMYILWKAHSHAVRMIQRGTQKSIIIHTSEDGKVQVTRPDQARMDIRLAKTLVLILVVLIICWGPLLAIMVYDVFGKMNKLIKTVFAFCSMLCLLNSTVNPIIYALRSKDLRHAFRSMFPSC
# Sequence of CB1-E cannabinoid receptors (P25103 309-407 partner): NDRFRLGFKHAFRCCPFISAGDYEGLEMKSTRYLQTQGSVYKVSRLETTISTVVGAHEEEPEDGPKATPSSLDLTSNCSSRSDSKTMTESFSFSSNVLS
# [2] = test system: Female Sprague-Dawley rats; assay: Hypothermia: body temperature in rats over 6 h after injection; conditions: rat, up to a dose of 10.0 mg/kg s.c.
# [3] = test system: Female Sprague-Dawley rats; assay: Antinociception: tail-flick procedure in rats over 6 h after injection; conditions: rat, up to doses of 10.0 mg/kg s.c.
# rCB1 [4] = target: T1, rCB1 (Rattus norvegicus, UniProt P20272); assay: Radioligand competition binding with [3H]CP-55,940, rat brain membranes; conditions: relative to 11; across rCB1, mCB2 and hCB2
# T1 sequence (P20272 whole entry): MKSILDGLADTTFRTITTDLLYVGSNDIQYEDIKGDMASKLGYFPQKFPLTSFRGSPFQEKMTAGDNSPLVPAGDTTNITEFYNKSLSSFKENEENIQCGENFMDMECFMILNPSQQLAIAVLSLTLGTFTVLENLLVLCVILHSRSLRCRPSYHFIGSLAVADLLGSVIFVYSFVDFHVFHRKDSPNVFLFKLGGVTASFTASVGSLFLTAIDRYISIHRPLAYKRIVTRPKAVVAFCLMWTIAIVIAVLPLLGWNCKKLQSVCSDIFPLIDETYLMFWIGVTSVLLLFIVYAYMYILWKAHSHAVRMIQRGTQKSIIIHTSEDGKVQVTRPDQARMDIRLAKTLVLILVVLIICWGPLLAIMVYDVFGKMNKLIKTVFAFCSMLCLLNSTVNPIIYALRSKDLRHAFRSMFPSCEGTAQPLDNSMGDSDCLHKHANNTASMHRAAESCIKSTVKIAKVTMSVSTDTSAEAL
# rCB1 [5] = target: T1, rCB1; format: cell-based; conditions: for functional profile in cAMP assay: CB1
# Sequence of mCB2 (P47936 whole entry): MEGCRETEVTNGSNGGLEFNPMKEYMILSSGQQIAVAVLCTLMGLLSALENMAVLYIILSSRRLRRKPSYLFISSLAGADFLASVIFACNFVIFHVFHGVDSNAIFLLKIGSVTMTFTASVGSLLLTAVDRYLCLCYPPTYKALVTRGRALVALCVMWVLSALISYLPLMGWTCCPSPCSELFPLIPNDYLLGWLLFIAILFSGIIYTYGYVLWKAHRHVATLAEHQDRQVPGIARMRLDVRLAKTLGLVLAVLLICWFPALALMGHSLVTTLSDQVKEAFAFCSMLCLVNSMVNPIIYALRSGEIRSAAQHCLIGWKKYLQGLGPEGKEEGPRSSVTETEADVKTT
# Sequence of hCB2 (P34972 whole entry): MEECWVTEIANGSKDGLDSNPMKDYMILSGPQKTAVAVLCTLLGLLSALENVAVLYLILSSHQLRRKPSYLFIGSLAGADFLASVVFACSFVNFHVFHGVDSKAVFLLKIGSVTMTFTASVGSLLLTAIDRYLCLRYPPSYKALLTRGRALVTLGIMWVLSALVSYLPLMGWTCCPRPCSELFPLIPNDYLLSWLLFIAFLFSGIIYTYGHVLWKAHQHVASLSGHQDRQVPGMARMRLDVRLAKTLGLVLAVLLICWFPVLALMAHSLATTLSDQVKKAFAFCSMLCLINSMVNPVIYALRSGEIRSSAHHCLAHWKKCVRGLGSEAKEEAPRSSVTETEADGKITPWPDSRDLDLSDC
SMILES,CB1 selectivity over mCB2 (mCB2),"in vitro functional characterization, CB1 profile [1]","β-arrestin2 translocation efficacy, 95% confidence interval [1]",antinociceptive effects (tail-flick) [3],EC50 (rCB1 [5]) [nM],functional profile in cAMP assay (rCB1 [5]),other results
"CC1(C)Oc2cc(C34CC5CC(CC(C5)C3)C4)cc(O)c2[C@@H]2C[C@H](CCO)CC[C@H]21 [Compound 16, (6aR,9R,10aR)-3-(Adamantan-1-yl)-9-(2-hydroxyethyl)-6,6-dimethyl-6a,7,8,9,10,10a-hexahydro-6H-benzo[c]chromen-1-ol]",~ 4 fold,,,,,,CB1 selectivity over hCB2 (hCB2): ~ 4 fold
"CC1(C)Oc2cc(C34CC5CC(CC(C5)C3)C4)cc(O)c2[C@@H]2CC(CO)=CC[C@H]21 [Compound 22, (6aR,10aR)-3-(Adamantan-1-yl)-9-(hydroxymethyl)-6,6-dimethyl-6a, 7, 10, 10a-tetrahydro-6H-benzo[c]chromen-1-ol]",,high efficacy CB1 agonists,0.54–0.80,,,,
CC1=CC[C@@H]2[C@@H](C1)c1c(O)cc(C34CC5CC(CC(C5)C3)C4)cc1OC2(C)C [Compound 1],,,0.43–0.81,neither had significant antinociceptive effects,,,hypothermic effects [2]: did not have hypothermic effects
"CC1(C)Oc2cc(C34CC5CC(CC(C5)C3)C4)cc(O)c2[C@@H]2C[C@@H](CO)CC[C@H]21 [Compound 17, (6aR,9S,10aR)-3-(Adamantan-1-yl)-9-(hydroxymethyl)-6,6-dimethyl-6a,7,8,9,10,10a-hexahydro-6H-benzo[c]chromen-1-ol]",,,,,,,lower affinities than β-hydroxymethyl isomer 11 (rCB1 [4]): 6- to 11 fold
CC1(C)Oc2cc(C34CC5CC(CC(C5)C3)C4)cc(O)c2-c2cc(CO)ccc21 [Compound 24],15 fold,,0.68–0.94,neither had significant antinociceptive effects,7.97,CB1 partial agonist; also recorded: partial CB1 agonist,functional profile in cAMP assay (rCB1 [5]; listed as AM4089): partial agonist
"CC1(C)Oc2cc(C34CC5CC(CC(C5)C3)C4)cc(O)c2[C@@H]2C[C@H](CO)CC[C@H]21 [Compound 11, (6aR,9R,10aR)-3-(Adamantan-1-yl)-9-(hydroxymethyl)-6,6-dimethyl-6a,7,8,9,10,10a-hexahydro-6H-benzo[c]chromen-1-ol]",,high efficacy CB1 agonists,0.65–0.92,,1.29,potent CB1 agonist,functional profile in cAMP assay (rCB1 [5]; listed as AM4054): agonist
